Literature values in US6846495B2, “Compositions having improved delivery of actives” (The Procter & Gamble Company, priority 1999, dated 2005).

Conditions: intranasal formulations

## COc1ccc2c(c1)[C@@]13CCCC[C@H]1[C@@H](C2)N(C)CC3 [Dextromethorphan, 3-methoxy-17-methylmorphinan]
  bioavailability: substantial increases in bioavailability
